Numbers after ± are expanded uncertainties.
What was measured:
[1] = 298.15 K; 101.33 kPa; Liquid
[2] = xn = mol fraction of the nth substance listed; settings: 298.15 K, 101.33 kPa, Liquid

SMILES: CNC=O [N-methylformamide]
- mass density [1]: 998.8 ± 0.7 kg/m3
- viscosity [1]: 1.681 ± 0.026 mPa·s

SMILES: CNC=O [N-methylformamide] + CN(C)C=O
- mass density ([2]; x2 = 0.0497): 995.4 ± 0.7 kg/m3
- viscosity ([2]; x2 = 0.0497): 1.618 ± 0.025 mPa·s
- mass density ([2]; x2 = 0.0997): 991.9 ± 0.7 kg/m3
- viscosity ([2]; x2 = 0.0997): 1.524 ± 0.024 mPa·s
- mass density ([2]; x2 = 0.2002): 985.5 ± 0.8 kg/m3
- viscosity ([2]; x2 = 0.2002): 1.373 ± 0.022 mPa·s
- mass density ([2]; x2 = 0.2999): 979.4 ± 0.8 kg/m3
- viscosity ([2]; x2 = 0.2999): 1.274 ± 0.02 mPa·s
- mass density ([2]; x2 = 0.4001): 973.6 ± 0.9 kg/m3
- viscosity ([2]; x2 = 0.4001): 1.171 ± 0.019 mPa·s
- mass density ([2]; x2 = 0.4999): 968.1 ± 0.9 kg/m3
- viscosity ([2]; x2 = 0.4999): 1.085 ± 0.017 mPa·s
- mass density ([2]; x2 = 0.5999): 963 ± 0.9 kg/m3
- viscosity ([2]; x2 = 0.5999): 1.006 ± 0.016 mPa·s
- mass density ([2]; x2 = 0.699): 958 ± 1 kg/m3
- viscosity ([2]; x2 = 0.699): 0.947 ± 0.015 mPa·s
- mass density ([2]; x2 = 0.8001): 953.2 ± 1 kg/m3
- viscosity ([2]; x2 = 0.8001): 0.897 ± 0.015 mPa·s
- mass density ([2]; x2 = 0.9001): 948.6 ± 1.1 kg/m3
- viscosity ([2]; x2 = 0.9001): 0.855 ± 0.014 mPa·s
- mass density ([2]; x2 = 0.95): 946.4 ± 1.1 kg/m3
- viscosity ([2]; x2 = 0.95): 0.84 ± 0.014 mPa·s

SMILES: CNC=O [N-methylformamide] + O
- mass density ([2]; x1 = 0.0504): 1003.2 ± 0.7 kg/m3
- viscosity ([2]; x1 = 0.0504): 1.174 ± 0.019 mPa·s
- mass density ([2]; x1 = 0.1001): 1008.9 ± 0.7 kg/m3
- viscosity ([2]; x1 = 0.1001): 1.422 ± 0.022 mPa·s
- mass density ([2]; x1 = 0.2): 1014.6 ± 0.8 kg/m3
- viscosity ([2]; x1 = 0.2): 1.793 ± 0.028 mPa·s
- mass density ([2]; x1 = 0.2998): 1016.3 ± 0.8 kg/m3
- viscosity ([2]; x1 = 0.2998): 2.001 ± 0.031 mPa·s
- mass density ([2]; x1 = 0.4002): 1015.1 ± 0.8 kg/m3
- viscosity ([2]; x1 = 0.4002): 2.067 ± 0.032 mPa·s
- mass density ([2]; x1 = 0.4996): 1012.2 ± 0.7 kg/m3
- viscosity ([2]; x1 = 0.4996): 2.04 ± 0.031 mPa·s
- mass density ([2]; x1 = 0.5996): 1009.4 ± 0.7 kg/m3
- viscosity ([2]; x1 = 0.5996): 1.961 ± 0.03 mPa·s
- mass density ([2]; x1 = 0.6994): 1006.1 ± 0.7 kg/m3
- viscosity ([2]; x1 = 0.6994): 1.878 ± 0.029 mPa·s
- mass density ([2]; x1 = 0.7999): 1003.7 ± 0.7 kg/m3
- viscosity ([2]; x1 = 0.7999): 1.794 ± 0.028 mPa·s
- mass density ([2]; x1 = 0.8983): 1000.9 ± 0.7 kg/m3
- viscosity ([2]; x1 = 0.8983): 1.734 ± 0.027 mPa·s
- mass density ([2]; x1 = 0.9498): 999.7 ± 0.7 kg/m3
- viscosity ([2]; x1 = 0.9498): 1.707 ± 0.027 mPa·s

SMILES: CN(C)C=O [dimethylformamide]
- mass density [1]: 944.2 ± 1.1 kg/m3
- viscosity [1]: 0.799 ± 0.013 mPa·s

SMILES: CN(C)C=O [dimethylformamide] + O
- mass density ([2]; x1 = 0.05): 996 ± 0.7 kg/m3
- viscosity ([2]; x1 = 0.05): 1.31 ± 0.021 mPa·s
- mass density ([2]; x1 = 0.1001): 996.8 ± 0.7 kg/m3
- viscosity ([2]; x1 = 0.1001): 1.728 ± 0.027 mPa·s
- mass density ([2]; x1 = 0.2): 995.1 ± 0.7 kg/m3
- viscosity ([2]; x1 = 0.2): 2.346 ± 0.036 mPa·s
- mass density ([2]; x1 = 0.299): 991.6 ± 0.7 kg/m3
- viscosity ([2]; x1 = 0.299): 2.491 ± 0.038 mPa·s
- mass density ([2]; x1 = 0.3998): 984.4 ± 0.8 kg/m3
- viscosity ([2]; x1 = 0.3998): 2.273 ± 0.035 mPa·s
- mass density ([2]; x1 = 0.4997): 975.9 ± 0.8 kg/m3
- viscosity ([2]; x1 = 0.4997): 1.878 ± 0.029 mPa·s
- mass density ([2]; x1 = 0.5993): 968.4 ± 0.9 kg/m3
- viscosity ([2]; x1 = 0.5993): 1.532 ± 0.024 mPa·s
- mass density ([2]; x1 = 0.6995): 960.7 ± 1 kg/m3
- viscosity ([2]; x1 = 0.6995): 1.243 ± 0.02 mPa·s
- mass density ([2]; x1 = 0.8): 954.9 ± 1 kg/m3
- viscosity ([2]; x1 = 0.8): 1.045 ± 0.017 mPa·s
- mass density ([2]; x1 = 0.8991): 949.1 ± 1.1 kg/m3
- viscosity ([2]; x1 = 0.8991): 0.901 ± 0.015 mPa·s
- mass density ([2]; x1 = 0.9488): 946.9 ± 1.1 kg/m3
- viscosity ([2]; x1 = 0.9488): 0.843 ± 0.014 mPa·s
